Measured values reported in patent US7915293B2, “Ubiquitin ligase inhibitors” (Rigel Pharmaceuticals, Inc., priority 2003, dated 2011).

Experiments:
Set-up in all cases: key: “+” indicates that the compound exibits inhibitory activity; “−” indicates that low or no inhibitory activity was observed
[1] = target: E3 (His-APC11/APC2-"APC") (Homo sapiens, UniProt Q9NYG5+Q9UJX6); experiment: Plate-based E3 ligase assay (APC FLAG), auto-ubiquitination; type: biochemical; details: 8 concentrations tested
E3 (His-APC11/APC2-"APC"), sequence (Q9NYG5 whole entry): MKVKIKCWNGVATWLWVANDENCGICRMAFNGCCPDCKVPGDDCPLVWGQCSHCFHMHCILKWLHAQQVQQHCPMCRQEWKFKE
E3 (His-APC11/APC2-"APC"), sequence (Q9UJX6 whole entry): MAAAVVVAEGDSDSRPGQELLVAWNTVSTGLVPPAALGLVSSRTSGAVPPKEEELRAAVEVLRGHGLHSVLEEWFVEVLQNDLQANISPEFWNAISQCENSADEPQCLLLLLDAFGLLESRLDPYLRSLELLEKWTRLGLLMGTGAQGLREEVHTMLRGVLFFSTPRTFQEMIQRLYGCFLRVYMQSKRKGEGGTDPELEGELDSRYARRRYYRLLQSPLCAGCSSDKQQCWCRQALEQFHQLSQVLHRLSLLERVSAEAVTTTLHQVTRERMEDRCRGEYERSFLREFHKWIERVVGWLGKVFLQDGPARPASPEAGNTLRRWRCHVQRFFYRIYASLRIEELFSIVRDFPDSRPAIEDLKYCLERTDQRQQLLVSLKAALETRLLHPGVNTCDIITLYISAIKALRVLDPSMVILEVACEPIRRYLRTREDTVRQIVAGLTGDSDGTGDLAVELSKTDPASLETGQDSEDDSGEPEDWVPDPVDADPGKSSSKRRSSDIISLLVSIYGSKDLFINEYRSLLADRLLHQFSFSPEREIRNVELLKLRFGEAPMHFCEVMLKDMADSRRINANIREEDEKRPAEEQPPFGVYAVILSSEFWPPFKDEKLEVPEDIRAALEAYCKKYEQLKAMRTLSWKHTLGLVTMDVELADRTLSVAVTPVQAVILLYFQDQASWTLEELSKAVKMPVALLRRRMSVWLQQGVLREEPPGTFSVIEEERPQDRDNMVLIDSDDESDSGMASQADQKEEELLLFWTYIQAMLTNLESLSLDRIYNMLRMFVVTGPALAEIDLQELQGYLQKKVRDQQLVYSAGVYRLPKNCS
Procedure, shortened: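 His-APC11/APC2 auto-ubiquitination was run in casein-blocked nickel plates for 1 h at room temperature, with E1 at 5 ng/well, UbcH5c at 20 ng/well and APC at 100 ng/well. Buffer was 62.5 mM Tris pH 7.6, 3 mM MgCl2, 1 mM DTT, 2.5 mM ATP and Flag-ubiquitin at 100 ng/well. Detection used anti-Flag/HRP chemiluminescence, and IC50 was typically from 6 or 8 concentrations versus a DMSO control.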

A549 cells [2] = experiment: Cell proliferation assay, photographic image analysis of proliferation, apoptosis and death (PAD assay), A549; type: cell-based; details: 6 concentrations tested
Procedure, shortened: (§1)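 Cells grown in RPMI with 5% FBS (2,000/well) and dosed 24 h after plating with 6.3-fold dilutions in duplicate (master plate 500× final, top 10 mM stock). After 48 h at 37 °C, cells formamide-fixed and DAPI-stained. Image analysis counted live, apoptotic and dead cells.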

A549 cells [3] = experiment: Non-photographic proliferation analysis (Promega Cell titer Aqueous), A549; type: cell-based; details: 6 concentrations tested
Procedure: (§2) A549 (ATCC# CCL-185), HeLa (ATCC# CCL-2), HCT116 (ATCC# CCL-247), and H1299 (ATCC# CRL-5803) cells were maintained in T175 flasks following the ATCC recommended media and handling procedures. Flasks reaching approximately 70% confluency were trypsinized and resuspended in RPMI media (Cell-Gro catalog number 10-040-CM) modified to contain 5% FBS, 100 ug/mlPen/Strep (Cell-Gro catalog number 30-002-CL), and 0.3 mg/ml L-Glutamine (Cell-Gro catalog number 25-003-CL). A 20,000 cells/ml solution was made for plating. Cells were plated in black Packard 96 well plates by placing 100 μl per well (2,000 cells per well).
(§3) Compounds and additional media were added 24 hours after cell plating. A compound master plate was created with concentrations 500 times greater than the final concentration added to the cells. All compound testing was done in duplicate using 6.3 fold dilutions starting with 10 mM. All outside wells (and 4 internal wells) were DMSO controls. Taxol and at least one additional control were run on all plates. Three microliters of the compound master plate were added to deep well blocks containing 750 μl of RPMI media. One hundred microliters were transferred from the compound/media deep well blocks to the plated cells resulting in a 500 fold dilution of the compounds. Cells were grown at 37° C., 5% CO2 for 48 hours.
(§4) Some cell plates were treated with Promega Cell titer Aqueous 1 kit (promega—VWR catalog number G3580). In this case, 48 hours after the test compound were added, 100 μl of media were removed and 20 μl of cell titer reagent were added to all wells. Plates were incubated at 37° C. for 45 minutes prior to absorbance reads on the Wallac plate reader at 490 nm for 0.1 sec/well.

HeLa cells [4] = experiment: Non-photographic proliferation analysis (Promega Cell titer Aqueous), HeLa; type: cell-based; details: 6 concentrations tested
Procedure: as §2, §3, §4

HCT116 cells [5] = experiment: Non-photographic proliferation analysis (Promega Cell titer Aqueous), HCT116; type: cell-based; details: 6 concentrations tested
Procedure: as §2, §3, §4

HeLa cells [6] = experiment: Cell proliferation assay, photographic image analysis of proliferation, apoptosis and death (PAD assay), HeLa; type: cell-based; details: 6 concentrations tested
Procedure, shortened: as §1

HCT116 cells [7] = experiment: Cell proliferation assay, photographic image analysis of proliferation, apoptosis and death (PAD assay), HCT116; type: cell-based; details: 6 concentrations tested
Procedure: as §2, §3
Cells to be analyzed by photography were fixed and stained. One hundred microliters of media were removed and 100 μl of 9.3% […] was added to each well. Plates were left on the benchtop for 45 minutes. A staining solution containing 1.55 μl of 1 mg/ml DAPI added to 18.75 ml PBS was warmed for 15 minutes at 37° C. The cells were aspirated prior to washing with 100 μl of PBS. Seventy microliters of PBS were aspirated and 170 μl of the DAPI solution were added to each well of fixed cells. Plates were left at room temperature for one hour then aspirated and washed twice with 100 μl of PBS. The stained cells were left at 4° C. for a minimum of 16 hours before photographic analysis with Array Scan II (Cellomics). Analysis of the photographic images to determine numbers of live cells (proliferation), apoptotic cells and dead cells, were according to the methods described in U.S. Provisional Patent Application Ser. No. 60/406,714, which incorporated herein in its entirety.

| SMILES | APC Flag 8 pt [1] | PAD Assay, A549 6 pt (A549 cells [2]) | Cell Titer-Aqueous, A549 6 pt (A549 cells [3]) | Cell Titer-Aqueous, HELA 6 pt (HeLa cells [4]) | Cell Titer-Aqueous, HCT116 6 pt (HCT116 cells [5]) | PAD Assay, HELA 6 pt (HeLa cells [6]) | PAD Assay, HCT116 6 pt (HCT116 cells [7]) |
| --- | --- | --- | --- | --- | --- | --- | --- |
| O=[N+]([O-])c1ccc(Oc2c(Cl)cc(S(=O)(=O)Nc3ccc(F)c(Cl)c3)cc2Cl)c(Cl)c1 [Example 16, 3,5-dichloro-N-(3-chloro-4-fluorophenyl)-4-(2-chloro-4-nitrophenoxy)benzene-sulfonamide] | + | − | + | + | + |  |  |
| N=C(NS(=O)(=O)c1cc(Cl)c(Oc2ccc([N+](=O)[O-])cc2)c(Cl)c1)c1ccncc1 [Example 62, N-{[3,5-dichloro-4-(4-nitrophenoxy)phenyl]sulfonyl}pyridine-4-carboximidamide] | − | + | + | + | + | + |  |
| CC1CCCC(C)N1S(=O)(=O)c1cc(Cl)c(Oc2ccc([N+](=O)[O-])cc2Cl)c(Cl)c1 (stereo not drawn) [Example 140, 1-{[3,5-dichloro-4-(2-chloro-4-nitrophenoxy)phenyl]sulfonyl}-2,6-dimethylpiperidine] | + |  | − | − | − |  |  |
| Cc1cccc(C)c1N(S(=O)(=O)c1cc(Cl)c(Oc2ccc([N+](=O)[O-])cc2Cl)c(Cl)c1)S(=O)(=O)c1cc(Cl)c(Oc2ccc([N+](=O)[O-])cc2Cl)c(Cl)c1 [Example 145, 3,5-dichloro-4-(2-chloro-4-nitrophenoxy)-N-(2,6-dimethylphenyl)-N-(1,3-dichloro-2-(2-chloro-4-nitrophenoxy)5-sulfonylbenzene)benzenesulfonamide] | + |  | − | − | − |  |  |
| Cc1cccc(C)c1NS(=O)(=O)c1cc(Cl)c(Oc2ccc([N+](=O)[O-])cc2Cl)c(Cl)c1 [Example 146, 3,5-dichloro-4-(2-chloro-4-nitrophenoxy)-N-(2,6-dimethylphenyl)benzenesulfonamide] | + | + | + | + | + | + |  |
| COc1cc(NS(=O)(=O)c2cc(Cl)c(Oc3ccc([N+](=O)[O-])cc3Cl)c(Cl)c2)c(OC)cc1Cl [Example 202, 3,5-dichloro-N-(4-chloro-2,5-dimethoxy-phenyl)-4-(2-chloro-4-nitrophenoxy)benzene-sulfonamide] | − | + | + | + |  | + |  |
| N=C(NS(=O)(=O)c1cc(Cl)c(Oc2ccc([N+](=O)[O-])cc2Cl)c(Cl)c1)c1cccc([N+](=O)[O-])c1 [Example 210, N-{[3,5-dichloro-4-(2-chloro-4-nitro-phenoxy)phenyl]sulfonyl}-3-nitrobenzene-carboximidamide] | + | + | + | + |  | + |  |
| O=C1Nc2cc(NS(=O)(=O)c3cc(Cl)c(Oc4ccc([N+](=O)[O-])cc4Cl)c(Cl)c3)ccc2OC1(F)F [Example 214, 3,5-dichloro-4-(2-chloro-4-nitrophenoxy)-N-(2,2-difluoro-3-oxo-3,4-dihydro-2H-1,4-benzoxazin-6-yl)benzenesulfonamide] | + | + | − | + |  | + |  |
| O=[N+]([O-])c1ccc(Oc2c(Cl)cc(S(=O)(=O)Nc3cccc4cccnc34)cc2Cl)c(Cl)c1 [Example 219, 3,5-dichloro-4-(2-chloro-4-nitrophenoxy)-N-quinolin-8-ylbenzenesulfonamide] | + | + | + | + |  | + | + |
| O=[N+]([O-])c1ccc(Oc2c(Cl)cc(S(=O)(=O)Nc3ccc(F)cc3I)cc2Cl)c(Cl)c1 [Example 226, 3,5-dichloro-4-(2-chloro-4-nitrophenoxy)-N-(4-fluoro-2-iodophenyl)benzenesulfonamide] | + | + |  |  |  | + | + |
| O=[N+]([O-])c1ccc(Oc2c(Cl)cc(S(=O)(=O)Nc3ccccc3C(F)(F)F)cc2Cl)c(Cl)c1 [Example 230, 3,5-dichloro-4-(2-chloro-4-nitrophenoxy)-N-[2-(trifluoromethyl)phenyl]benzene-sulfonamide] | + | + |  |  |  | + | + |
| Cc1ccc(NS(=O)(=O)c2cc(Cl)c(Oc3ccc([N+](=O)[O-])cc3Cl)c(Cl)c2)c(Cl)c1 [Example 251, 3,5-dichloro-N-(2-chloro-4-methylphenyl)-4-(2-chloro-4-nitrophenoxy)benzene-sulfonamide] | + | + |  |  |  | + | + |
| O=S(=O)(Nc1ccc(C(F)(F)F)cc1Cl)c1ccc(Oc2ncc(C(F)(F)F)cc2Cl)cc1 [Example 255, N-[2-chloro-4-(trifluoromethyl)phenyl]-4-{[3-chloro-5-(trifluoromethyl)pyridin-2-yl]oxy}benzenesulfonamide] | + | + |  |  |  | + | + |
| O=[N+]([O-])c1ccc(Oc2c(Cl)cc(S(=O)(=O)Nc3ccccc3-n3cccc3)cc2Cl)c(Cl)c1 [Example 285, 3,5-dichloro-4-(2-chloro-4-nitrophenoxy)-N-[2-(1H-pyRRol-1-yl)phenyl]benzene-sulfonamide] | + | + |  |  |  | + | + |
